Measurements published in patent publication US20260176320A1, “MODULATORS OF G-PROTEIN COUPLED RECEPTORS” (priority 2018, published 2026).
Read-outs that look alike come from different tables or passages of the source.

Columns and labels:
[1] = target: GLP-1R (Homo sapiens, UniProt P43220); test: HitHunter cAMP assay (GLP-1R); type: cell-based; conditions: cAMP; for Emax: read-out: (Emax) GLP-1R
Outline: (§1)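 Duplicate 22-point, 2-fold agonist titrations applied to receptor-expressing suspension cells in IBMX-containing HBSS; 30 min RT stimulation. Read: luminescent cAMP immunocompetition after O/N dark incubation.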

[2] = target: T1, GIP-R (Homo sapiens, UniProt P48546); test: HitHunter cAMP assay (GIP-R); type: cell-based; conditions: cAMP; for Emax: read-out: (Emax) GIP-R
T1 sequence (P48546 22-466): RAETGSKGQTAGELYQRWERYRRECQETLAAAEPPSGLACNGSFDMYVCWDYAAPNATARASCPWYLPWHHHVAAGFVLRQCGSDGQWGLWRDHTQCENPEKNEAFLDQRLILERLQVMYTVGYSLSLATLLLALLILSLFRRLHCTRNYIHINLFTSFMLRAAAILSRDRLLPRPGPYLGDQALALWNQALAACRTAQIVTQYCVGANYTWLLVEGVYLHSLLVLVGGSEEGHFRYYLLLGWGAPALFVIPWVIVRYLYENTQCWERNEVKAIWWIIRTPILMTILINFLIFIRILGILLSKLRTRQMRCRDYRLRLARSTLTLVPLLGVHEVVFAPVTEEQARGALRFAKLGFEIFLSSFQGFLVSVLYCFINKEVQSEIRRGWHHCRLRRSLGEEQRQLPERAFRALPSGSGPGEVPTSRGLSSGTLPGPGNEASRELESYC
Outline: as §1

Sequence of GLP-1R (P43220 24-463): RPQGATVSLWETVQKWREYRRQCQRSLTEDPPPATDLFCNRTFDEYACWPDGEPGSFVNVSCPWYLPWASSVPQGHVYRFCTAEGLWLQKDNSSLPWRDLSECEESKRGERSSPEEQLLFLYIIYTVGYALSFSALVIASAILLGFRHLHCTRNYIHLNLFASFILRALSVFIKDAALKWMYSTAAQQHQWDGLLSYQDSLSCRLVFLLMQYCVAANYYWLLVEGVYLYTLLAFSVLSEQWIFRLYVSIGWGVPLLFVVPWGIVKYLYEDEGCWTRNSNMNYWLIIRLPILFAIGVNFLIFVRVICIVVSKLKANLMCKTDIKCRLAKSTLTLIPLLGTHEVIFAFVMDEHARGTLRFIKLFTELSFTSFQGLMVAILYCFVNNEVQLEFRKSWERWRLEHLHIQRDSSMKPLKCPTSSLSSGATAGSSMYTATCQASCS

Row | Structure (SMILES) | EC50 ([1]; EC50 GLP-1R/nM, Table 3) [nM] | EC50 ([1]; EC50 GLP-1R/nM, Table 3A) [nM] | Emax ([1]; Table 3) [%] | Emax ([1]; Table 3A) [%] | EC50 ([2]; EC50 GIP-R/nM, Table 3) [nM] | EC50 ([2]; EC50 GIP-R/nM, Table 3A) [nM] | Emax ([2]; Table 3) [%] | Emax ([2]; Table 3A) [%] | EC50 ([1]; Table 3, read-out: EC50 GLP-1R/nM) [nM] | EC50 ([1]; Table 3A, read-out: EC50 GLP-1R/nM) [nM] | EC50 ([2]; Table 3, read-out: EC50 GIP-R/nM) [nM] | EC50 ([2]; Table 3A, read-out: EC50 GIP-R/nM) [nM]
1 | CCCCCCCCCCCCCCCC(=O)N[C@@H](CCC(=O)NCCCC[C@H](NC(=O)[C@H](CO)NC(=O)[C@@H]1CCCN1C(=O)[C@@H]1CCCN1C(=O)[C@@H]1CCCN1C(=O)[C@H](C)NC(=O)CNC(=O)[C@H](CO)NC(=O)[C@H](CO)NC(=O)[C@@H]1CCCN1C(=O)CNC(=O)CNC(=O)[C@H](C)NC(=O)[C@H](CC(C)C)NC(=O)[C@H](CC(C)C)NC(=O)[C@H](Cc1c[nH]c2ccccc12)NC(=O)[C@H](CC(N)=O)NC(=O)[C@@H](NC(=O)[C@H](Cc1ccccc1)NC(=O)[C@H](CCC(=O)O)NC(=O)C(C)(C)NC(=O)[C@H](C)NC(=O)[C@H](C)NC(=O)[C@H](CCC(N)=O)NC(=O)[C@H](CCCCN)NC(=O)[C@H](CC(=O)O)NC(=O)[C@H](CC(C)C)NC(=O)[C@H](Cc1ccc(O)cc1)NC(=O)[C@@H](NC(=O)[C@H](CO)NC(=O)[C@H](Cc1ccc(O)cc1)NC(=O)[C@H](CC(=O)O)NC(=O)[C@H](CO)NC(=O)[C@@H](NC(=O)[C@H](Cc1ccccc1)NC(=O)[C@@H](NC(=O)CNC(=O)[C@H](CCC(=O)O)NC(=O)CSCC(=O)NCCN1C(=O)CC2(CCCC2)C1=O)[C@@H](C)O)[C@@H](C)O)[C@@H](C)CC)C(C)C)C(N)=O)C(=O)O [Compound 102] | 1 to 10 | 1 to 10 | 104 | 104 | 10 to 100 | 10 to 100 | 34 | 34 |  |  |  | 
2 | CCCCCCCCCCCCCCCC(=O)N[C@@H](CCC(=O)NCCCC[C@H](NC(=O)[C@H](CO)NC(=O)[C@@H]1CCCN1C(=O)[C@@H]1CCCN1C(=O)[C@@H]1CCCN1C(=O)[C@H](C)NC(=O)CNC(=O)[C@H](CO)NC(=O)[C@H](CO)NC(=O)[C@@H]1CCCN1C(=O)CNC(=O)CNC(=O)[C@H](C)NC(=O)[C@H](CC(C)C)NC(=O)[C@H](CC(C)C)NC(=O)[C@H](Cc1c[nH]c2ccccc12)NC(=O)[C@H](CC(N)=O)NC(=O)[C@@H](NC(=O)[C@H](Cc1ccccc1)NC(=O)[C@H](CCC(=O)O)NC(=O)C(C)(C)NC(=O)[C@H](C)NC(=O)[C@H](C)NC(=O)[C@H](CCC(N)=O)NC(=O)[C@H](CCCCN)NC(=O)[C@H](CC(=O)O)NC(=O)[C@H](CC(C)C)NC(=O)[C@H](Cc1ccc(O)cc1)NC(=O)[C@@H](NC(=O)[C@H](CO)NC(=O)[C@H](Cc1ccc(O)cc1)NC(=O)[C@H](CC(=O)O)NC(=O)[C@H](CO)NC(=O)[C@@H](NC(=O)[C@H](Cc1ccccc1)NC(=O)[C@@H](NC(=O)CNC(=O)[C@H](CCC(=O)O)NC(=O)CSCC(=O)NCCN1C(=O)C[C@@H](CC)C1=O)[C@@H](C)O)[C@@H](C)O)[C@@H](C)CC)C(C)C)C(N)=O)C(=O)O (single isomer, unassigned) [Compound 61] |  |  | 96 | 96 |  |  | 56 | 56 |  |  |  | 
3 | CCCCCCCCCCCCCCCC(=O)N[C@@H](CCC(=O)NCCCC[C@H](NC(=O)[C@H](CO)NC(=O)[C@@H]1CCCN1C(=O)[C@@H]1CCCN1C(=O)[C@@H]1CCCN1C(=O)[C@H](C)NC(=O)CNC(=O)[C@H](CO)NC(=O)[C@H](CO)NC(=O)[C@@H]1CCCN1C(=O)CNC(=O)CNC(=O)[C@H](C)NC(=O)[C@H](CC(C)C)NC(=O)[C@H](CC(C)C)NC(=O)[C@H](Cc1c[nH]c2ccccc12)NC(=O)[C@H](CC(N)=O)NC(=O)[C@@H](NC(=O)[C@H](Cc1ccccc1)NC(=O)[C@H](CCC(=O)O)NC(=O)C(C)(C)NC(=O)[C@H](C)NC(=O)[C@H](C)NC(=O)[C@H](CCC(N)=O)NC(=O)[C@H](CCCCN)NC(=O)[C@H](CC(=O)O)NC(=O)[C@H](CC(C)C)NC(=O)[C@H](Cc1ccc(O)cc1)NC(=O)[C@@H](NC(=O)[C@H](CO)NC(=O)[C@H](Cc1ccc(O)cc1)NC(=O)[C@H](CC(=O)O)NC(=O)[C@H](CO)NC(=O)[C@@H](NC(=O)[C@H](Cc1ccccc1)NC(=O)[C@@H](NC(=O)CNC(=O)[C@H](CCC(=O)O)NC(=O)CSCC(=O)NCCN1C(=O)C[C@@H](OC)C1=O)[C@@H](C)O)[C@@H](C)O)[C@@H](C)CC)C(C)C)C(N)=O)C(=O)O [Compound 48] | 0.1 to 1 | 0.1 to 1 | 104 | 104 | 0.1 to 1 | 0.1 to 1 | 65 | 65 |  |  |  | 
4 | CCCCCCCCCCCCCCCC(=O)N[C@@H](CCC(=O)NCCCC[C@H](NC(=O)[C@H](CO)NC(=O)[C@@H]1CCCN1C(=O)[C@@H]1CCCN1C(=O)[C@@H]1CCCN1C(=O)[C@H](C)NC(=O)CNC(=O)[C@H](CO)NC(=O)[C@H](CO)NC(=O)[C@@H]1CCCN1C(=O)CNC(=O)CNC(=O)[C@H](C)NC(=O)[C@H](CC(C)C)NC(=O)[C@H](CC(C)C)NC(=O)[C@H](Cc1c[nH]c2ccccc12)NC(=O)[C@H](CC(N)=O)NC(=O)[C@@H](NC(=O)[C@H](Cc1ccccc1)NC(=O)[C@H](CCC(=O)O)NC(=O)C(C)(C)NC(=O)[C@H](C)NC(=O)[C@H](C)NC(=O)[C@H](CCC(N)=O)NC(=O)[C@H](CCCCN)NC(=O)[C@H](CC(=O)O)NC(=O)[C@H](CC(C)C)NC(=O)[C@H](Cc1ccc(O)cc1)NC(=O)[C@@H](NC(=O)[C@H](CO)NC(=O)[C@H](Cc1ccc(O)cc1)NC(=O)[C@H](CC(=O)O)NC(=O)[C@H](CO)NC(=O)[C@@H](NC(=O)[C@H](Cc1ccccc1)NC(=O)[C@@H](NC(=O)CNC(=O)[C@H](CCC(=O)O)NC(=O)CSCC(=O)NCCN1C(=O)C2=C(CCCC2)C1=O)[C@@H](C)O)[C@@H](C)O)[C@@H](C)CC)C(C)C)C(N)=O)C(=O)O [Compound 100] | 10 to 100 | 10 to 100 | 95 | 95 | 1 to 10 | 1 to 10 | 100 | 100 |  |  |  | 
5 | CCCCCCCCCCCCCCCC(=O)N[C@@H](CCC(=O)NCCCC[C@H](NC(=O)[C@H](CO)NC(=O)[C@@H]1CCCN1C(=O)[C@@H]1CCCN1C(=O)[C@@H]1CCCN1C(=O)[C@H](C)NC(=O)CNC(=O)[C@H](CO)NC(=O)[C@H](CO)NC(=O)[C@@H]1CCCN1C(=O)CNC(=O)CNC(=O)[C@H](C)NC(=O)[C@H](CC(C)C)NC(=O)[C@H](CC(C)C)NC(=O)[C@H](Cc1c[nH]c2ccccc12)NC(=O)[C@H](CC(N)=O)NC(=O)[C@@H](NC(=O)[C@H](Cc1ccccc1)NC(=O)[C@H](CCC(=O)O)NC(=O)C(C)(C)NC(=O)[C@H](C)NC(=O)[C@H](C)NC(=O)[C@H](CCC(N)=O)NC(=O)[C@H](CCCCN)NC(=O)[C@H](CC(=O)O)NC(=O)[C@H](CC(C)C)NC(=O)[C@H](Cc1ccc(O)cc1)NC(=O)[C@@H](NC(=O)[C@H](CO)NC(=O)[C@H](Cc1ccc(O)cc1)NC(=O)[C@H](CC(=O)O)NC(=O)[C@H](CO)NC(=O)[C@@H](NC(=O)[C@H](Cc1ccccc1)NC(=O)[C@@H](NC(=O)CNC(=O)[C@H](CCC(=O)O)NC(=O)CSCC(=O)NCCN1C(=O)CC[C@H]1C)[C@@H](C)O)[C@@H](C)O)[C@@H](C)CC)C(C)C)C(N)=O)C(=O)O (single isomer, unassigned) [Compound 74] |  |  | 92 | 92 |  |  | 47 | 47 |  |  |  | 
6 | CCCCCCCCCCCCCCCC(=O)N[C@@H](CCC(=O)NCCCC[C@H](NC(=O)[C@H](CO)NC(=O)[C@@H]1CCCN1C(=O)[C@@H]1CCCN1C(=O)[C@@H]1CCCN1C(=O)[C@H](C)NC(=O)CNC(=O)[C@H](CO)NC(=O)[C@H](CO)NC(=O)[C@@H]1CCCN1C(=O)CNC(=O)CNC(=O)[C@H](C)NC(=O)[C@H](CC(C)C)NC(=O)[C@H](CC(C)C)NC(=O)[C@H](Cc1c[nH]c2ccccc12)NC(=O)[C@H](CC(N)=O)NC(=O)[C@@H](NC(=O)[C@H](Cc1ccccc1)NC(=O)[C@H](CCC(=O)O)NC(=O)C(C)(C)NC(=O)[C@H](C)NC(=O)[C@H](C)NC(=O)[C@H](CCC(N)=O)NC(=O)[C@H](CCCCN)NC(=O)[C@H](CC(=O)O)NC(=O)[C@H](CC(C)C)NC(=O)[C@H](Cc1ccc(O)cc1)NC(=O)[C@@H](NC(=O)[C@H](CO)NC(=O)[C@H](Cc1ccc(O)cc1)NC(=O)[C@H](CC(=O)O)NC(=O)[C@H](CO)NC(=O)[C@@H](NC(=O)[C@H](Cc1ccccc1)NC(=O)[C@@H](NC(=O)CNC(=O)[C@H](CCC(=O)O)NC(=O)CSCC(=O)NCCN1C(=O)CCN1C)[C@@H](C)O)[C@@H](C)O)[C@@H](C)CC)C(C)C)C(N)=O)C(=O)O [Compound 55] |  |  | 104 | 104 |  |  | 47 | 47 | 0.1 to 1 | 0.1 to 1 | 1 to 10 | 1 to 10
